Source: PMC10247784, “Physiological activation of human and mouse bitter taste receptors by bile acids” (Communications Biology, 2023)
Values joined by “and” are separate entries in the source; they are usually repeats but may differ in a detail not shown here. Identical values can stand only once.

Target: T1, human TAS2R14 (Homo sapiens, UniProt Q9NYV8)
T1 construct: expressed in transfected cells; host or cells: HEK293T-Gα16gust44
T1 sequence (Q9NYV8 1-317): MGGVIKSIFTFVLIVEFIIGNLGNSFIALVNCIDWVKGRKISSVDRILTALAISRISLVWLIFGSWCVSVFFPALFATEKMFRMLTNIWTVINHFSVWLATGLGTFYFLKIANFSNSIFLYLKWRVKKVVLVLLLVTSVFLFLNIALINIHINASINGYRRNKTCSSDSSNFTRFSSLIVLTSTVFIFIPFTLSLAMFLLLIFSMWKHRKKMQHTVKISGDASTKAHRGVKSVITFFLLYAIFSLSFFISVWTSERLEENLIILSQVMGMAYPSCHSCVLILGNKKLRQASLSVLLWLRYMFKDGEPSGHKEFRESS
Test: Calcium imaging assay (FLIPR), HEK293T-Gα16gust44 cells transfected with human TAS2R14
Assay type: cell-based
Details: for RLU: TAS2R14 trace
Method: This set of bile acids was chosen because of their commercial availability in high purities, their diversity within the class of bile acids and their previous detection and quantitation in human blood. Stock solutions were prepared in DMSO.
As basal growth medium for the HEK293T-Gα16gust44 cell line[17],[59] served Dulbecco’s modified eagle medium (DMEM) (Thermo Fisher Scientific, Darmstadt, Germany) supplemented with 10 % fetal bovine serum (Sigma-Aldrich, Steinheim, Germany), 2 mM L-glutamine (Sigma-Aldrich, Steinheim, Germany), 100 units/ml penicillin (Sigma Aldrich, Steinheim, Germany) and 100 µg/ml streptomycin (Sigma Aldrich, Steinheim, Germany). Growth conditions were 37 °C, 5 % CO2 and saturated air-humidity[60].
HEK293T-Gα16gust44 cells were seeded on poly-D-lysine (10 µg/ml) coated 96-well plates to reach a confluence of 40-60 % the next day. For transient transfection 150 ng of plasmid DNA containing the receptor of interest and 0.3 µl lipofectamine 2000 (Thermo Fisher Scientific, Darmstadt, Germany) per well were used and transfection took place according to the manual of lipofectamine 2000. […] The empty vector DNA (mock) was transfected as negative control[14],[41].
Cells were loaded using the calcium-sensitive fluorescent dye Fluo-4-AM (Abcam, Cambridge, Great Britain) in the presence of 2.5 mM probenecid (Sigma-Aldrich, Steinheim, Germany) the day after transfection[13],[41]. 1 h after loading, cells were washed with C1 buffer using a BioTek Cell Washer, incubated in the dark for half an hour and washed again. For automated agonist application and measurement of fluorescence changes, a FLIPR^TETRA device (Molecular Devices, San José, United States) was used. Viability of cells was tested by application of 100 nM Somatostatin 14 (Bachem, Bubendorf, Switzerland)[42].
Measured data were negative control corrected by subtracting the signal of the mock-transfected cells and exported to Microsoft Excel using the FLIPR software ScreenWorks 4.2. In Microsoft Excel software, standardization of maximum fluorescence intensities to the basal fluorescence and normalization to the buffer-only control was done to calculate the relative fluorescence changes (ΔF/F).
Initial screening experiments performed in duplicate wells were confirmed by at least one replication and representative traces were selected for display. All dose-response relationships were determined by three independent experiments (biological replicates) performed in duplicates (technical replicates). Threshold concentrations, defined as lowest substance concentrations leading to statistically significant elevated fluorescence changes in receptor-transfected cells compared with empty vector-transfected cells, were determined using SigmaPlot with Student’s t-test to evaluate statistical significance (p < 0.01).

- Efficacy = maximal amplitude (ΔF/F) (TAS2R14, bile acids, mean): 0.05441
- Efficacy (maximal amplitude ΔF/F), individual data points (TAS2R14, bile acids, single replicates, listed as CDCA): 0.0148 and 0.07816 and 0.07028
- Δ F/F (TAS2R14, conc. 0,01 mM): 0.006116
- Δ F/F (TAS2R14, conc. 0,03 mM): 0.05441
- Δ F/F (TAS2R14, conc. 0,00003 mM): -0.01882
- Δ F/F (TAS2R14, conc. 0,0001 mM): -0.01861
- Δ F/F (TAS2R14, conc. 0,0003 mM): -0.02118
- Δ F/F (TAS2R14, conc. 0,001 mM): -0.02299
- Δ F/F (TAS2R14, conc. 0,003 mM): -0.02084
- RLU (Time (s) 0): 0 RLU
- RLU (Time (s) 2 (Taurocholic Acid 2.016)): -49.1645 RLU
- RLU (Time (s) 4 (Taurocholic Acid 4.016)): -25.5098 RLU
- RLU (Time (s) 6 (Taurocholic Acid 6.016)): -14.6279 RLU
- RLU (Time (s) 8 (Taurocholic Acid 8.016)): -24.697 RLU
- RLU (Time (s) 12 (Taurocholic Acid 12.016)): -44.0879 RLU
- RLU (Time (s) 14 (Taurocholic Acid 14.016)): -37.1122 RLU
- RLU (Time (s) 16 (Taurocholic Acid 16.016)): -43.9695 RLU
- RLU (Time (s) 18 (Taurocholic Acid 18.016)): -32.8497 RLU
- RLU (Time (s) 18.797 (Chenodeoxycholic Acid 18.765)): 7.956 RLU
- RLU (Time (s) 20.797 (Chenodeoxycholic Acid 20.781)): 109.495 RLU
- RLU (Time (s) 22.797 (Chenodeoxycholic Acid 22.781)): 144.429 RLU
- RLU (Time (s) 24.797 (Chenodeoxycholic Acid 24.781)): 188.481 RLU
- RLU (Time (s) 26.797 (Chenodeoxycholic Acid 26.781)): 194.457 RLU
- RLU (Time (s) 28.797 (Chenodeoxycholic Acid 28.781)): 226.874 RLU
- RLU (Time (s) 30.797 (Chenodeoxycholic Acid 30.781)): 234.892 RLU
- RLU (Time (s) 32.797 (Chenodeoxycholic Acid 32.781)): 237.826 RLU
- RLU (Time (s) 34.797 (Chenodeoxycholic Acid 34.781)): 263.919 RLU
- RLU (Time (s) 36.797 (Chenodeoxycholic Acid 36.781)): 289.916 RLU
- RLU (Time (s) 38.797 (Chenodeoxycholic Acid 38.781)): 280.38 RLU
- RLU (Time (s) 40.797 (Chenodeoxycholic Acid 40.781)): 364.7 RLU
- RLU (Time (s) 42.797 (Chenodeoxycholic Acid 42.781)): 389.665 RLU
- RLU (Time (s) 44.797 (Chenodeoxycholic Acid 44.781)): 409.588 RLU
- RLU (Time (s) 46.797 (Chenodeoxycholic Acid 46.781)): 412.285 RLU
- RLU (Time (s) 48.797 (Chenodeoxycholic Acid 48.781)): 462.382 RLU
- RLU (Time (s) 50.797 (Chenodeoxycholic Acid 50.781)): 489.05 RLU
- RLU (Time (s) 52.797 (Chenodeoxycholic Acid 52.781)): 480.824 RLU
- RLU (Time (s) 54.797 (Chenodeoxycholic Acid 54.781)): 484 RLU
- RLU (Time (s) 56.797 (Chenodeoxycholic Acid 56.781)): 514.521 RLU
- RLU (Time (s) 58.797 (Chenodeoxycholic Acid 58.781)): 561.552 RLU
- RLU (Time (s) 60.797 (Chenodeoxycholic Acid 60.781)): 547.999 RLU
- RLU (Time (s) 62.797 (Chenodeoxycholic Acid 62.781)): 553.072 RLU
- RLU (Time (s) 64.797 (Chenodeoxycholic Acid 64.781)): 596.368 RLU
- RLU (Time (s) 66.797 (Chenodeoxycholic Acid 66.781)): 582.133 RLU
- RLU (Time (s) 68.797 (Chenodeoxycholic Acid 68.781)): 591.364 RLU
- RLU (Time (s) 70.797 (Chenodeoxycholic Acid 70.781)): 612.747 RLU
- RLU (Time (s) 72.797 (Chenodeoxycholic Acid 72.781)): 626.948 RLU
- RLU (Time (s) 74.797 (Chenodeoxycholic Acid 74.781)): 600.862 RLU
- RLU (Time (s) 76.797 (Chenodeoxycholic Acid 76.781)): 644.716 RLU
- RLU (Time (s) 78.797 (Chenodeoxycholic Acid 78.781)): 648.451 RLU
- RLU (Time (s) 80.797 (Chenodeoxycholic Acid 80.781)): 604.524 RLU
- RLU (Time (s) 82.797 (Chenodeoxycholic Acid 82.781)): 653.18 RLU
- RLU (Time (s) 84.797 (Chenodeoxycholic Acid 84.781)): 678.438 RLU
- RLU (Time (s) 86.797 (Chenodeoxycholic Acid 86.781)): 660.126 RLU
Structure (SMILES): C[C@H](CCC(=O)O)[C@H]1CC[C@H]2[C@@H]3[C@H](O)C[C@@H]4C[C@H](O)CC[C@]4(C)[C@H]3CC[C@]12C [Chenodeoxycholic Acid, chenodeoxycholic acid]
